Assay results as given in patent US20170087138A1 (priority 2007, published 2017).
Where a name gives a salt, the structure may show the parent alone.

Assays:
[1] = Solubility of salts in water, pH of the saturated solution and identity of the precipitate; format: physicochemical; settings: for Precipitate: whether precipitate isolated after solubility determination is identical to the compound dissolved; for solubility (in words): table 3; for Resulting pH: pH in the saturated solution of the salt
Description: If the acid is a liquid it was added neat otherwise it was dissolved in the given solvent prior to addition. After mixing and precipitation stirring was continued overnight and the precipitate collected by filtration. Before drying in vacuum at 30° C. a small reference sample was withdrawn and dried at room temperature without vacuum. This procedure was included in order to test for solvates.

[2] = system: extracellular levels of acetylcholine in the prefrontal cortex and ventral hippocampus; assay: Microdialysis: extracellular acetylcholine levels in freely-moving rats; format: in vivo; settings: rat, FIGS. 10A and 10B
Description: The experiment was designed to evaluate the effects of compounds of the present invention on extracellular levels of acetylcholine in the prefrontal cortex and ventral hippocampus of freely-moving rats.
Male Sprague-Dawley rats, initially weighing 275-300 g, were used. The animals were housed under a 12-hr light/dark cycle under controlled conditions for regular in-door temperature (21±2° C.) and humidity (55±5%) with food and tap water available ad libitum.
Rats were anaesthetised with hypnorm/dormicum (2 ml/kg) and intracerebral guide cannulas (CMA/12) were stereotaxically implanted into the hippocampus, aiming to position the dialysis probe tip in the ventral hippocampus (co-ordinates: 5.6 mm posterior to bregma, lateral −5.0 mm, 7.0 mm ventral to dura or in the frontal cortex (co-ordinates: 3.2 mm anterior to bregma; lateral, 0.8 mm; 4.0 mm ventral to dura). Anchor screws and acrylic cement were used for fixation of the guide cannulas. The body temperature of the animals was monitored by rectal probe and maintained at 37° C. The rats were allowed to recover from surgery for 2 days, housed singly in cages. On the day of the experiment a microdialysis probe (CMA/12, 0.5 mm diameter, 3 mm length) was inserted through the guide cannula.
The probes were connected via a dual channel swivel to a microinjection pump. […]

healthy volunteers = assay: Multiple dose clinical trial, vital signs including blood pressure; format: in vivo, human; settings: up to 30 mg/day
Text: 49 subjects received active compound and 21 subjects received placebo.

C57/B6 mice = assay: Formalin model of neuropathic pain; format: in vivo; settings: in words
Description: The irritation caused by the formalin injection elicits a characteristic biphasic behavioural response, as quantified by the amount of time spent licking the injured paw. The first phase (˜0-10 minutes) represents direct chemical irritation and nociception, whereas the second (˜20-30 minutes) is thought to represent pain of neuropathic origin. The two phases are separated by a quiescent period in which behaviour returns to normal. Measuring the amount of time spent licking the injured paw in the two phases assesses the effectiveness of test compounds to reduce the painful stimuli. Eight C57/B6 mice (ca. 25 g) were tested per group. Table 4 below show the amount of time spent licking the injured paw in the two phases, i.e. 0-5 minutes and 20-30 minutes post formalin injection. The amount of compound administered is calculated as the free base.

[3] = molecular target: T1, human-homomeric 5-HT3A receptors (Homo sapiens, UniProt P46098); assay: 5-HT3A receptor antagonism, voltage clamp in Xenopus oocytes; format: cell-based; settings: higher concentrations (100-100000 nM)
T1 sequence (P46098 24-478): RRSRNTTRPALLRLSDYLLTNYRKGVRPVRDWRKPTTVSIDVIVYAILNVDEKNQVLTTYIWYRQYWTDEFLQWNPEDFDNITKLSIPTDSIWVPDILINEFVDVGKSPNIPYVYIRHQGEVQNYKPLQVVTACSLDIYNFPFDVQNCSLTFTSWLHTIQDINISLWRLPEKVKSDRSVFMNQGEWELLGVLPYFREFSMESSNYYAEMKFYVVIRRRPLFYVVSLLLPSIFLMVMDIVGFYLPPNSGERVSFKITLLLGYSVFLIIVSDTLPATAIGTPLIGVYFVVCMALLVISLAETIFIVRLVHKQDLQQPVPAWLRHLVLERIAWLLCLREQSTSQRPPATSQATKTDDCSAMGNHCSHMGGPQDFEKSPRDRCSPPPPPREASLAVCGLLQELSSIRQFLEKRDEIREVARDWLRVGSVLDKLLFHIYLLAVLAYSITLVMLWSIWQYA
Description: The experiments were carried out as follows. […] Oocytes avoid of the follicle layer were selected and incubated for 24 hours in Modified Barth's Saline buffer [88 mM NaCl, 1 mM KCl, 15 mM HEPES, 2.4 mM NaHCO3, 0.41 mM CaCl2, 0.82 mM MgSO4, 0.3 mM Ca(NO3)2] supplemented with 2 mM sodium pyruvate, 0.1 U/l penicillin and 0.1 μg/l streptomycin. Stage IV-IV oocytes were identified and injected with 12-48 nl of nuclease free water containing 14-50 pg of cRNA coding for human 5-HT3A receptors and incubated at 18° C. until they were used for electrophysiological recordings (1-7 days after injection). […] Cells were impaled with agar plugged 0.5-1 MΩ electrodes containing 3 M KCl and voltage clamped at −90 mV by a GeneClamp 500B amplifier. The oocytes were continuously perfused with Ringer buffer and the drugs were applied in the perfusate.

Cc1ccc(Sc2ccccc2C2CCNCC2)cc1 [Fumaric acid 1:1]
Precipitate [1]: =start

Cc1ccc(Sc2ccccc2C2CCNCC2)cc1 [Citric acid 2:1]
Precipitate [1]: =Start

Cc1ccc(Sc2ccccc2C2CCNCC2)cc1 (racemic)
solubility (in words) [1]: exceptionally high solubility | Precipitate [1]: =start (after

Cc1ccc(Sc2ccccc2C2CCNCC2)cc1 [Phosphoric acid 1:1]
Resulting pH [1]: 2.0

Cc1ccc(Sc2ccccc2C2CCNCC2)cc1 [Glutamic acid 1:1]
solubility (in words) [1]: exceptionally high solubility

Cc1ccc(Sc2ccccc2C2CCNCC2)cc1 [Sebacoinic acid, 1,8-octanedioic acid 2:1]
Precipitate [1]: =Start

Cc1ccc(Sc2ccccc2C2CCNCC2)cc1 [HBr, 4-(2-(4-tolylsulfanyl)phenyl)-piperidin hydrobromide]
Resulting pH ([1]; hydrobromide): 7.0 | Precipitate ([1]; hydrobromide): =Start

Cc1ccc(Sc2ccccc2C2CCNCC2)cc1 [D-tartaric acid, D-2,3-dihydroxy butanedioic acid 1:1]
Precipitate [1]: Hydrate

Cc1ccc(Sc2ccccc2C2CCNCC2)cc1 [Compound I, 4-[2-(4-methylphenylsulfanyl)-phenyl]piperidine]
extra cellular level of acetylcholine in the prefrontal cortex and the hippocampus [2]: increase | blood pressure (healthy volunteers): only at the highest dose were there signs of elevated blood pressure | effect in the first phase (direct chemical irritation and nociception) (C57/B6 mice): little effect | time spent licking paws in the second phase (C57/B6 mice): clear and dose dependent decrease | maximal current, of the maximal current elicited by 5-HT itself [3]: 70-80%

Cc1ccc(Sc2ccccc2C2CCNCC2)cc1 [HCl]
Precipitate [1]: =Start

Cc1ccc(Sc2ccccc2C2CCNCC2)cc1 [Adipicacid, 1,6-hexanedioic acid 2:1]
Precipitate [1]: =start

Cc1ccc(Sc2ccccc2C2CCNCC2)cc1 [Glutaric acid, 1,5-pentanedioic acid 1:1]
solubility (in words) [1]: exceptionally high solubility | Precipitate [1]: =start

Cc1ccc(Sc2ccccc2C2CCNCC2)cc1 [Oxalic acid 1:1]
Precipitate [1]: =Start
